Results reported in patent US20050026223A1, “Method and compositions for increasing bone mass” (The Board of Trustees of the University of Arkansas, priority 1999, published 2005).
Several values for one entry are separate records, joined by “and”; a condition that tells them apart may be missing. Identical values can stand only once.

Columns and labels:
[1] = system: HeLa cells transfected with estrogen receptor β (mERβ); test: Etoposide-induced apoptosis of HeLa cells stably transfected with mERβ; type: cell-based, human; conditions: compound 10^−8 M 1 h, etoposide 5×10^−5 M 6 hour
Excerpt: CMV promoter alone and CMV promoter-driven cDNA for mERα or mErβ were stably transfected into HeLa cells. […] Cells were trypsinized, pelleted and trypan blue positive cells enumerated.
In this experiment, instead of calvaria cells, human HeLa cells which contain undetectable, if any, estrogen receptor were used. HeLa cells were stably transfected with either a CMV promoter-driven cDNA for the murine estrogen receptor-alpha (mERα) or a CMV promoter-driven cDNA for the murine estrogen receptor-beta (mERβ). […] Cells were trypsinized, pelleted and trypan blue positive cells were enumerated.

MLO-Y4 osteocytic cells = test: Etoposide-induced apoptosis of MLO-Y4 osteocytic cells (trypan blue uptake); type: cell-based, murine
Description: Cells were pretreated with the indicated concentrations of the compounds for 1 hour before the addition of the pro-apoptotic agent etoposide. Apoptosis was determined after 6 hour by trypan blue uptake as described in FIG. 3. * indicates p<0.05 versus etoposide alone, by ANOVA (Student-Newman-Keuls method).
MLO-Y4 cells were pretreated for 1 hour with the pure receptor antagonist ICI182,780 (10^−7 M) before the addition of the test agents (10^−8 M). Apoptosis was induced and quantified as described in FIG. 3. * indicates p<0.05 versus etoposide alone, by ANOVA (Student-Newman-Keuls method).
In this experiment, MLO-Y4 cells were pretreated with the indicated concentrations of the various compounds for 1 h before the addition of the pro-apoptotic agent, etoposide. Apoptosis was determined after 6 h by trypan blue uptake as described in FIG. 3.

[2] = BMD by dual-energy x-ray absorptiometry in intact or ovariectomized mice, 28 days; type: in vivo; set-up: global 1 (BMD) / hindquart 1 (BMD) / spine 1 (BMD) / global 2 (BMD) / hindquart 2 (BMD) / spine 2 (BMD) / global 1 (BMD), mean / hindquart 1 (BMD), mean / spine 1 (BMD), mean / global 2 (BMD), mean / hindquart 2 (BMD), mean / spine 2 (BMD), mean: unit not given here; conditions: for Global BMD: 2000 ng/g body weight for 28 days, mean; for global 2 (BMD), mean / hindquart 2 (BMD), mean / spine 2 (BMD), mean / global 2 (BMD) / hindquart 2 (BMD) / spine 2 (BMD): 2000 ng/g for 28 days, end of experiment; for global 2 (BMD), mean / hindquart 2 (BMD), mean / spine 2 (BMD), mean / global 1 (BMD), mean / hindquart 1 (BMD), mean / spine 1 (BMD), mean: group mean; for global 2 (BMD) / hindquart 2 (BMD) / spine 2 (BMD) / global 1 (BMD) / hindquart 1 (BMD) / spine 1 (BMD): individual animals; for global 1 (BMD), mean / hindquart 1 (BMD), mean / spine 1 (BMD), mean / global 1 (BMD) / hindquart 1 (BMD) / spine 1 (BMD): 2000 ng/g group, day 0 initial measurement
Description: In a representative experiment of this sort, six 4-5 month old female mice per group are screened twice for BMD in a four week period immediately prior to the initiation of the experiment to establish that peak adult bone mass has been attained. A subset of mice are then ovariectomized. Intact and ovariectomized mice are treated with vehicle, or 20, 200 or 2000 ng/g body weight estratriene-3-ol or another test compound.
Stock solutions of the test agents (10,000 μg/ml) are maintained in approximately 2.0 ml of 95% ethanol. These stocks are diluted in 95% ethanol to make 1000 μg/ml and 100 μg/ml concentrations. The concentration of the stocks is checked spectrophotometrically. For each animal injection, the test agent is diluted in sesame oil and sonicated. Test agents are administered for 28 days by subcutaneous injections on alternative days. The mice are weighed weekly and serum samples are collected at appropriate times for analysis of bone biochemical markers, such as osteocalcin or collagen cross-links. Tetracycline labeling is performed by administration of the antibiotic (30 mg/kg) at 2 and 8 days prior to the end of each experiment.
During the 28 day experiment, BMD is determined in live animals at day 0, 14 and 28. Following animal sacrifice at the end of the experiment, the vertebral bones L1-L4 are collected for fixation and embedded undecalcified in methylmethacrylate plastic for the determination of the prevalence of osteoblast and osteocyte apoptosis and other static and dynamic histomorphometric measurements. L5 vertebrae are isolated for determining anti-fracture efficacy of the compounds by assaying compression, 3 point bending and other appropriate biomechanical tests. Results confirming the expected efficacy of these compounds show decreased prevalence of osteoblast and/or osteocyte apoptosis, and/or positive BMD changes, and/or increased cancellous bone area, and/or increased rate of bone formation, and/or increased biomechanical strength.
As an example, the results of an experiment whereby 2000 ng/g body weight of estratriene-3-ol was administered for 28 days to estrogen-replete (intact) or estrogen-deficient (ovariectomized) mice are shown in Table 2.
Each row represents values for individual animals. The first three sets of numbers represent the initial BMD measurements (by dual-energy x-ray absorptiometry with Hologic QDR2000 plus, using customized software) at day 0 and the last three BMD measurements at the end of the experiment. Global=BMD of the entire skeleton minus the head and tail; hindquarters=the mean BMD of both hindlimbs; spine=the BMD of cervical, thoracic and lumbar spine.

[3] = Ovx mice, t-test ovx vs 2000 ng/g 0.0001

Structure (SMILES): C[C@@]12CCC[C@H]1[C@@H]1CCc3cc(O)ccc3[C@H]1CC2 [estratriene-3-ol]
- Effect on etoposide-induced apoptosis [1]: potently inhibited
- Inhibition of etoposide-induced apoptosis of osteocytic cell line (MLO-Y4 osteocytic cells; 1 h pretreatment before etoposide, trypan blue after 6 h): dose-dependently inhibited
- Antiapoptotic effect on osteocytes after ICI182,780 (MLO-Y4 osteocytic cells; 1 h pretreatment with ICI182,780 10^−7 M): abrogated
- Global BMD ([2]; Ovx mice, p < 0.00001): 0.0555 ± 0.0011 g/cm2
- global 2 (BMD), mean ([2]; Ovx mice, t-test ovx vs 2000 ng/g 0.0000): 0.0555
- hindquart 2 (BMD), mean [2, 3]: 0.0618
- spine 2 (BMD), mean [2, 3]: 0.0599
- global 2 (BMD) ([2]; Ovx mice): 0.0565 and 0.0557 and 0.0548 and 0.0545 and 0.0564 and 0.0568 and 0.0550 and 0.0539
- hindquart 2 (BMD) ([2]; Ovx mice): 0.0602 and 0.0632 and 0.0599 (2×) and 0.0624 and 0.0598 and 0.0647 and 0.0630
- spine 2 (BMD) ([2]; Ovx mice): 0.0608 and 0.0585 and 0.0584 and 0.0598 and 0.0610 and 0.0625 and 0.0578 and 0.0605
- global 1 (BMD), mean ([2]; Ovx mice): 0.0534
- hindquart 1 (BMD), mean ([2]; Ovx mice): 0.0573
- spine 1 (BMD), mean ([2]; Ovx mice): 0.0579
- global 1 (BMD) ([2]; Ovx mice): 0.0505 and 0.0542 and 0.0496 and 0.0540 and 0.0526 and 0.0569 and 0.0565 and 0.0528
- hindquart 1 (BMD) ([2]; Ovx mice): 0.0527 and 0.0588 and 0.0504 and 0.0596 and 0.0547 and 0.0604 and 0.0591 and 0.0582
- spine 1 (BMD) ([2]; Ovx mice): 0.0547 and 0.0581 and 0.0542 and 0.0586 and 0.0580 and 0.0628 and 0.0603 and 0.0568
- Global BMD ([2]; intact mice, p < 0.002): 0.0554 ± 0.0015 g/cm2
- global 2 (BMD), mean ([2]; intact mice, t-test vehicle vs 2000 ng/g 0.0036): 0.0554
- spine 2 (BMD), mean ([2]; intact mice, t-test vehicle vs 2000 ng/g 0.0037): 0.0609
- hindquart 2 (BMD), mean ([2]; intact mice, t-test vehicle vs 2000 ng/g 0.0077): 0.0605
- global 2 (BMD) ([2]; intact mice): 0.0550 and 0.0543 and 0.0541 and 0.0568 (2×) and 0.0537 and 0.0574
- hindquart 2 (BMD) ([2]; intact mice): 0.0585 and 0.0603 and 0.0619 and 0.0629 and 0.0640 and 0.0554 and 0.0605
- spine 2 (BMD) ([2]; intact mice): 0.0602 and 0.0604 and 0.0601 and 0.0613 and 0.0620 and 0.0588 and 0.0632
- global 1 (BMD), mean ([2]; intact mice): 0.0527
- hindquart 1 (BMD), mean ([2]; intact mice): 0.0562
- spine 1 (BMD), mean ([2]; intact mice): 0.0571
- global 1 (BMD) ([2]; intact mice): 0.0486 and 0.0511 and 0.0543 and 0.0537 and 0.0533 and 0.0521 and 0.0560
- hindquart 1 (BMD) ([2]; intact mice): 0.0509 and 0.0565 and 0.0605 and 0.0577 and 0.0546 and 0.0544 and 0.0587
- spine 1 (BMD) ([2]; intact mice): 0.0511 and 0.0560 and 0.0593 and 0.0584 and 0.0571 and 0.0555 and 0.0623
